Measured values reported in ChEMBL document CHEMBL1909046, “DrugMatrix in vitro pharmacology data”.
pIC50, pKi: −log10 of the molar value.

How the values were obtained:
[1] = molecular target: Beta-3 adrenergic receptor (Homo sapiens, UniProt P13945); experiment: DRUGMATRIX: Adrenergic beta3 radioligand binding (ligand: [125I] Cyanopindolol); assay type: cell membranes, HEK293, Membrane; conditions: hek293; Not Active = under 50% inhibition at 10 µM
[2] = molecular target: T1, Vasoactive intestinal polypeptide receptor 1 (Homo sapiens, UniProt P32241); assay type: cell membranes, Membrane; conditions: ht-29; further: in other assays of this panel Not Active means under 50% inhibition at 10 µM
T1 sequence (P32241 whole entry): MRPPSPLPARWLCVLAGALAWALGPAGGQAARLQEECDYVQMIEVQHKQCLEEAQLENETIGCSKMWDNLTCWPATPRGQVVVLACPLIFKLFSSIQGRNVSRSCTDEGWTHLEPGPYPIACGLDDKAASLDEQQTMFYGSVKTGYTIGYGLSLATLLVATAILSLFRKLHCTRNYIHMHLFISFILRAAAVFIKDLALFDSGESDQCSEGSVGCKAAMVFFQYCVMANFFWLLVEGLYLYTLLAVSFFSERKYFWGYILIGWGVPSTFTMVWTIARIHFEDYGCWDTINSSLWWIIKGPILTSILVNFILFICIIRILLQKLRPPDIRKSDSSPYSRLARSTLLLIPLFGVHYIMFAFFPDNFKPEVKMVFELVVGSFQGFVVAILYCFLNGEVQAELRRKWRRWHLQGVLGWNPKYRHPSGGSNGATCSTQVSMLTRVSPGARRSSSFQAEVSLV

[3] = molecular target: 5-hydroxytryptamine receptor 4 (Cavia porcellus, UniProt O70528); assay type: cell membranes, Dunkin-Hartley, Striatum, Membrane; further: in other assays of this panel Not Active means under 50% inhibition at 10 µM
[4] = molecular target: T2, C-X-C chemokine receptor type 2 (Homo sapiens, UniProt P25025); assay type: cell membranes, Membrane; conditions: cho-k1; further: in other assays of this panel Not Active means under 50% inhibition at 10 µM
T2 sequence (P25025 whole entry): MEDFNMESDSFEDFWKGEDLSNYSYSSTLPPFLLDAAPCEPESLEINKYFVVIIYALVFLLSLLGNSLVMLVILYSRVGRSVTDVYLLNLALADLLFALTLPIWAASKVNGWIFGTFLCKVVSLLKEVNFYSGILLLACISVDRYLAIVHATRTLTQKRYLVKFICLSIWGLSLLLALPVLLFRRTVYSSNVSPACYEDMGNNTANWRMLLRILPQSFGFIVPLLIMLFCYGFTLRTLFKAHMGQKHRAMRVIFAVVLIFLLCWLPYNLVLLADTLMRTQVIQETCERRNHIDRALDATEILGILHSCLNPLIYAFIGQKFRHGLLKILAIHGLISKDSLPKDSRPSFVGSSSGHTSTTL

[5] = DRUGMATRIX: Calcium Channel Type L, Dihydropyridine radioligand binding (ligand: [3H] Nitrendipine); assay type: cell membranes, Rattus norvegicus, Wistar, Cerebral cortex, Membrane; conditions: Not Active = under 50% inhibition at 10 µM
[6] = DRUGMATRIX: Calcium Channel Type L, Benzothiazepine radioligand binding (ligand: [3H] Diltiazem); assay type: cell membranes, Rattus norvegicus, Wistar, Brain, Membrane; conditions: Not Active = under 50% inhibition at 10 µM; for pIC50: read-out: IC50; for pKi: read-out: Ki

Chain of 5-hydroxytryptamine receptor 4 (O70528 whole entry): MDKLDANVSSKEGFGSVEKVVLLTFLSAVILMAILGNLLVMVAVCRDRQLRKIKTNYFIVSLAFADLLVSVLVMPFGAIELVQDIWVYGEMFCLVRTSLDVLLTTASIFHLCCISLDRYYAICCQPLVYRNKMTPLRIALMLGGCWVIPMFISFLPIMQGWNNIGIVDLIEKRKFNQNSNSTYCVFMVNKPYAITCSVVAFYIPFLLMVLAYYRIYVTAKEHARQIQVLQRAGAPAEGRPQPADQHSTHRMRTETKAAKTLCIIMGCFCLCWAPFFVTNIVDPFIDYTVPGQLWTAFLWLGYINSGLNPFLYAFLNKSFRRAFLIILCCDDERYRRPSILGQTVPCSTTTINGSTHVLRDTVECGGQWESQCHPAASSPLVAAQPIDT
Chain of Beta-3 adrenergic receptor (P13945 whole entry): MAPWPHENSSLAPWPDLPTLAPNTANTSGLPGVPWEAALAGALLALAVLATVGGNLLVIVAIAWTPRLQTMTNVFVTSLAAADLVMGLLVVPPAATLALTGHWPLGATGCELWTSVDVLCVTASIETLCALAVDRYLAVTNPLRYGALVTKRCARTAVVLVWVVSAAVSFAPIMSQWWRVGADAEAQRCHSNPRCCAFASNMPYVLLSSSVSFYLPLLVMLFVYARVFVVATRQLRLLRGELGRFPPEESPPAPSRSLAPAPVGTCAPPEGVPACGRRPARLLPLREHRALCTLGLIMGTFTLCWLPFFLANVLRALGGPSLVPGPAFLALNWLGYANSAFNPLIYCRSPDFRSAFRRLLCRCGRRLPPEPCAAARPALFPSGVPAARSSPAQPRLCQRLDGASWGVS

Compound | IC50 [1] | IC50 [2] | IC50 [3] | IC50 [4] | IC50 [5] | Ki [5] | pIC50 [6] | pKi [6] | IC50 [6] | Ki [6] | Ki [1] | Ki [2] | Ki [3] | Ki [4]
N=C(N)c1ccc(OCCCCCOc2ccc(C(=N)N)cc2)cc1 [PENTAMIDINE] | Not Active | Not Active | Not Active | Not Active | Not Active | Not Active | 5.66 | 5.71 |  |  |  |  |  | 
NNCCc1ccccc1 [PHENELZINE] | Not Active | Not Active | Not Active | Not Active | Not Active | Not Active |  |  | Not Active | Not Active |  |  |  | 
CCc1ccc(CCOc2ccc(CC3SC(=O)NC3=O)cc2)nc1 (stereo unspecified) [PIOGLITAZONE] | Not Active | Not Active | Not Active | Not Active | Not Active | Not Active |  |  | Not Active | Not Active |  |  |  | 
CCCNC(C)C(=O)Nc1ccccc1C (stereo unspecified) [PRILOCAINE] | Not Active | Not Active | Not Active | Not Active | Not Active | Not Active |  |  | Not Active | Not Active |  |  |  | 
CCN(CC)CCNC(=O)c1ccc(N)cc1 [PROCAINAMIDE] | Not Active | Not Active | Not Active | Not Active | Not Active | Not Active |  |  | Not Active | Not Active |  |  |  | 
CCN(CC)CCCC(C)Nc1c2ccc(Cl)cc2nc2ccc(OC)cc12 (stereo unspecified) [QUINACRINE] | Not Active | Not Active | Not Active | Not Active | Not Active | Not Active | 5.97 | 6.02 |  |  |  |  |  | 
C[C@]12C=CC(=O)C=C1CC[C@H]1[C@@H]3C[C@@H](O)[C@](O)(C(=O)CO)[C@@]3(C)C[C@H](O)[C@@]12F [TRIAMCINOLONE] | Not Active | Not Active | Not Active | Not Active | Not Active | Not Active |  |  | Not Active | Not Active |  |  |  | 
CC[C@]1(O)C[C@@H]2CN(CCc3c([nH]c4ccccc34)[C@@](C(=O)OC)(c3cc4c(cc3OC)N(C)[C@H]3[C@@](O)(C(N)=O)[C@H](O)[C@]5(CC)C=CCN6CC[C@]43[C@@H]65)C2)C1 [VINDESINE] | Not Active | Not Active | Not Active | Not Active | Not Active | Not Active |  |  | Not Active | Not Active |  |  |  | 
CCN(C(C)=O)c1cccc(-c2ccnc3c(C#N)cnn23)c1 [ZALEPLON] | Not Active | Not Active | Not Active | Not Active | Not Active | Not Active |  |  | Not Active | Not Active |  |  |  | 
COBALTOUS CHLORIDE | Not Active | Not Active | Not Active | Not Active | Not Active | Not Active |  |  | Not Active | Not Active | Not Active | Not Active | Not Active | Not Active
COLISTIN | Not Active | Not Active | Not Active | Not Active | Not Active | Not Active |  |  | Not Active | Not Active | Not Active | Not Active | Not Active | Not Active
